According to patent publication US10442807B2, “Aryl substituted bicyclic compounds as herbicides” (FMC Corporation, priority 2015, dated 2019):

Key:
Type in all cases: in vivo
[1] = test system: barnyardgrass (Echinochloa crus-galli); test: Test A preemergence, directed soil spray, visual injury rating; conditions: approx. 10 d, 0 = no effect, 100 = complete control
In short: (§1)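 In a loam soil and sand blend, either planted seeds got a preemergence directed soil spray or plants at the one- to two-leaf stage (2 to 10 cm tall) were sprayed, using test chemicals in a non-phytotoxic solvent mixture with surfactant. After about 10 d in a greenhouse, injury was visually rated against untreated controls on a 0-100 scale.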

[2] = test system: foxtail, giant (giant foxtail, Setaria faberii); test: as above; conditions: approx. 10 d, 0 = no effect, 100 = complete control
In short: as §1

[3] = test system: kochia (Kochia scoparia); test: as above; conditions: approx. 10 d, 0 = no effect, 100 = complete control
In short: as §1

[4] = test system: pigweed (Amaranthus retroflexus); test: as above; conditions: approx. 10 d, 0 = no effect, 100 = complete control
In short: as §1

[5] = test system: ragweed (common ragweed, Ambrosia elation); test: as above; conditions: approx. 10 d, 0 = no effect, 100 = complete control
In short: as §1

[6] = test system: ryegrass, Italian (Italian ryegrass, Lolium multiflorum); test: as above; conditions: approx. 10 d, 0 = no effect, 100 = complete control
In short: as §1

[7] = test system: barnyardgrass (Echinochloa crus-galli); test: Test A postemergence application, visual injury rating; conditions: approx. 10 d, 0 = no effect, 100 = complete control
In short: as §1

[8] = test system: blackgrass (Alopecurus myosuroides); test: as above; conditions: approx. 10 d, 0 = no effect, 100 = complete control
In short: as §1

[9] = test system: corn (Zea mays); test: as above; conditions: approx. 10 d, 0 = no effect, 100 = complete control
In short: as §1

[10] = test system: foxtail, giant (giant foxtail, Setaria faberii); test: as above; conditions: approx. 10 d, 0 = no effect, 100 = complete control
In short: as §1

[11] = test system: galium (catchweed bedstraw, Galium aparine); test: as above; conditions: approx. 10 d, 0 = no effect, 100 = complete control
In short: as §1

[12] = test system: kochia (Kochia scoparia); test: as above; conditions: approx. 10 d, 0 = no effect, 100 = complete control
In short: as §1

[13] = test system: pigweed (Amaranthus retroflexus); test: as above; conditions: approx. 10 d, 0 = no effect, 100 = complete control
In short: as §1

[14] = test system: ragweed (common ragweed, Ambrosia elation); test: as above; conditions: approx. 10 d, 0 = no effect, 100 = complete control
In short: as §1

[15] = test system: ryegrass, Italian (Italian ryegrass, Lolium multiflorum); test: as above; conditions: approx. 10 d, 0 = no effect, 100 = complete control
In short: as §1

[16] = test system: wheat (Triticum aestivum); test: as above; conditions: approx. 10 d, 0 = no effect, 100 = complete control
In short: as §1

[17] = test system: barnyardgrass (Echinochloa crus-galli); test: Test B flooded paddy test, visual plant response rating; conditions: 250 g ai/ha; applied to paddy water at 2-leaf stage; rated after 13 to 15 days; scale 0 to 100, 0 is no effect, 100 is complete control
In short: (§2)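 Pots flooded to 3 cm above soil at treatment; compound applied directly into paddy water, depth held throughout. Greenhouse for 13 to 15 days, then visual rating versus untreated controls on a 0–100 scale (0 no effect, 100 complete control); dash means no result.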

[18] = test system: ducksalad (Heteranthera limosa); test: as above; conditions: 250 g ai/ha; applied to paddy water at 2-leaf stage; rated after 13 to 15 days; scale 0 to 100, 0 is no effect, 100 is complete control
In short: as §2

[19] = test system: rice (Oryza sativa); test: as above; conditions: 250 g ai/ha; applied to paddy water at 2-leaf stage; rated after 13 to 15 days; scale 0 to 100, 0 is no effect, 100 is complete control
In short: as §2

[20] = test system: sedge, umbrella (small-flower umbrella sedge, Cyperus difformis); test: as above; conditions: 250 g ai/ha; applied to paddy water at 2-leaf stage; rated after 13 to 15 days; scale 0 to 100, 0 is no effect, 100 is complete control
In short: as §2

| Structure (SMILES) | Barnyardgrass plant response rating (0 to 100 scale) ([1]; 125 g ai/ha) | Barnyardgrass plant response rating (0 to 100 scale) ([1]; 500 g ai/ha) | Foxtail, Giant plant response rating (0 to 100 scale) ([2]; 125 g ai/ha) | Foxtail, Giant plant response rating (0 to 100 scale) ([2]; 500 g ai/ha) | Kochia plant response rating (0 to 100 scale) ([3]; 125 g ai/ha) | Pigweed plant response rating (0 to 100 scale) ([4]; 125 g ai/ha) | Pigweed plant response rating (0 to 100 scale) ([4]; 500 g ai/ha) | Ragweed plant response rating (0 to 100 scale) ([5]; 125 g ai/ha) | Ragweed plant response rating (0 to 100 scale) ([5]; 500 g ai/ha) | Ryegrass, Italian plant response rating (0 to 100 scale) ([6]; 125 g ai/ha) | Ryegrass, Italian plant response rating (0 to 100 scale) ([6]; 500 g ai/ha) | Barnyardgrass plant response rating (0 to 100 scale) ([7]; 125 g ai/ha) | Barnyardgrass plant response rating (0 to 100 scale) ([7]; 500 g ai/ha) | Blackgrass plant response rating (0 to 100 scale) ([8]; 125 g ai/ha) | Blackgrass plant response rating (0 to 100 scale) ([8]; 500 g ai/ha) | Corn plant response rating (0 to 100 scale) ([9]; 125 g ai/ha) | Corn plant response rating (0 to 100 scale) ([9]; 500 g ai/ha) | Foxtail, Giant plant response rating (0 to 100 scale) ([10]; 125 g ai/ha) | Foxtail, Giant plant response rating (0 to 100 scale) ([10]; 500 g ai/ha) | Galium plant response rating (0 to 100 scale) ([11]; 125 g ai/ha) | further results |
| --- | --- | --- | --- | --- | --- | --- | --- | --- | --- | --- | --- | --- | --- | --- | --- | --- | --- | --- | --- | --- | --- |
| O=C(Nc1cccc(F)c1F)C1c2nncn2CC1c1ccc(C(F)(F)F)cc1 (centres unmarked) [Compound 12] | 20 | 80 | 90 | 90 | 30 | 30 | 80 | 0 | 50 | 40 | 60 | 30 | 90 | 0 | 60 | 0 | 60 | 30 | 90 | 30 | Kochia plant response rating (0 to 100 scale) ([3]; 500 g ai/ha): 80; Galium plant response rating (0 to 100 scale) ([11]; 500 g ai/ha): 70; Kochia plant response rating (0 to 100 scale) ([12]; 125 g ai/ha): 20; Kochia plant response rating (0 to 100 scale) ([12]; 500 g ai/ha): 60; Pigweed plant response rating (0 to 100 scale) ([13]; 125 g ai/ha): 0; Pigweed plant response rating (0 to 100 scale) ([13]; 500 g ai/ha): 70; Ragweed plant response rating (0 to 100 scale) ([14]; 125 g ai/ha): 0; Ragweed plant response rating (0 to 100 scale) ([14]; 500 g ai/ha): 50; Ryegrass, Italian plant response rating (0 to 100 scale) ([15]; 125 g ai/ha): 0; Ryegrass, Italian plant response rating (0 to 100 scale) ([15]; 500 g ai/ha): 60; Wheat plant response rating (0 to 100 scale) ([16]; 125 g ai/ha): 0; Wheat plant response rating (0 to 100 scale) ([16]; 500 g ai/ha): 40; Plant response rating, Flood, Barnyardgrass [17]: 0; Plant response rating, Flood, Ducksalad [18]: 75; Plant response rating, Flood, Rice [19]: 0; Plant response rating, Flood, Sedge, Umbrella [20]: 0 |
| O=C(Nc1ccccc1F)C1c2nncn2CC1c1ccc(Cl)cc1 (centres unmarked) [Compound 20] | 20 | 70 | 30 | 90 | 30 | 0 | 0 | 0 | 50 | 0 | 0 | 20 | 60 | 0 | 0 | 20 | 80 | 20 | 70 | 30 | Kochia plant response rating (0 to 100 scale) ([3]; 500 g ai/ha): 90; Galium plant response rating (0 to 100 scale) ([11]; 500 g ai/ha): 50; Kochia plant response rating (0 to 100 scale) ([12]; 125 g ai/ha): 0; Kochia plant response rating (0 to 100 scale) ([12]; 500 g ai/ha): 40; Pigweed plant response rating (0 to 100 scale) ([13]; 125 g ai/ha): 0; Pigweed plant response rating (0 to 100 scale) ([13]; 500 g ai/ha): 0; Ragweed plant response rating (0 to 100 scale) ([14]; 125 g ai/ha): 0; Ragweed plant response rating (0 to 100 scale) ([14]; 500 g ai/ha): 20; Ryegrass, Italian plant response rating (0 to 100 scale) ([15]; 125 g ai/ha): 0; Ryegrass, Italian plant response rating (0 to 100 scale) ([15]; 500 g ai/ha): 0; Wheat plant response rating (0 to 100 scale) ([16]; 125 g ai/ha): 0; Wheat plant response rating (0 to 100 scale) ([16]; 500 g ai/ha): 20; Plant response rating, Flood, Barnyardgrass [17]: 40; Plant response rating, Flood, Ducksalad [18]: 70; Plant response rating, Flood, Rice [19]: 0; Plant response rating, Flood, Sedge, Umbrella [20]: 0 |
| Cc1ccc(C2Cn3c(C)nnc3C2C(=O)Nc2cccc(F)c2C)cc1C (centres unmarked) [Compound 10] | 50 | 90 | 80 | 90 | 0 | 0 | 20 | 0 | 0 | 0 | 70 | 50 | 90 | 0 | 70 | 20 | 40 | 30 | 80 | 0 | Kochia plant response rating (0 to 100 scale) ([3]; 500 g ai/ha): 50; Galium plant response rating (0 to 100 scale) ([11]; 500 g ai/ha): 50; Kochia plant response rating (0 to 100 scale) ([12]; 125 g ai/ha): 0; Kochia plant response rating (0 to 100 scale) ([12]; 500 g ai/ha): 30; Pigweed plant response rating (0 to 100 scale) ([13]; 125 g ai/ha): 0; Pigweed plant response rating (0 to 100 scale) ([13]; 500 g ai/ha): 0; Ragweed plant response rating (0 to 100 scale) ([14]; 125 g ai/ha): 0; Ragweed plant response rating (0 to 100 scale) ([14]; 500 g ai/ha): 20; Ryegrass, Italian plant response rating (0 to 100 scale) ([15]; 125 g ai/ha): 0; Ryegrass, Italian plant response rating (0 to 100 scale) ([15]; 500 g ai/ha): 30; Wheat plant response rating (0 to 100 scale) ([16]; 125 g ai/ha): 30; Wheat plant response rating (0 to 100 scale) ([16]; 500 g ai/ha): 30; Plant response rating, Flood, Barnyardgrass [17]: 20; Plant response rating, Flood, Ducksalad [18]: 45; Plant response rating, Flood, Rice [19]: 0; Plant response rating, Flood, Sedge, Umbrella [20]: 0 |
| CCc1nnc2n1CC(c1ccc(C(F)(F)F)cc1)C2C(=O)Nc1cccc(F)c1F (centres unmarked) [Compound 8, N-(2,3-difluorophenyl)-3-ethyl-6,7-dihydro-6-[4-(trifluoromethyl)phenyl]-5H-pyrrolo[2,1-c]-1,2,4-triazole-7-carboxamide] | 30 | 70 | 30 | 90 | 0 | 20 | 50 | 0 | 0 | 0 | 0 | 20 | 50 | 0 | 0 | 0 | 0 | 20 | 60 | 30 | Galium plant response rating (0 to 100 scale) ([11]; 500 g ai/ha): 50; Kochia plant response rating (0 to 100 scale) ([12]; 125 g ai/ha): 0; Kochia plant response rating (0 to 100 scale) ([12]; 500 g ai/ha): 40; Pigweed plant response rating (0 to 100 scale) ([13]; 125 g ai/ha): 20; Pigweed plant response rating (0 to 100 scale) ([13]; 500 g ai/ha): 60; Ragweed plant response rating (0 to 100 scale) ([14]; 125 g ai/ha): 0; Ragweed plant response rating (0 to 100 scale) ([14]; 500 g ai/ha): 20; Ryegrass, Italian plant response rating (0 to 100 scale) ([15]; 125 g ai/ha): 0; Ryegrass, Italian plant response rating (0 to 100 scale) ([15]; 500 g ai/ha): 0; Wheat plant response rating (0 to 100 scale) ([16]; 125 g ai/ha): 0; Wheat plant response rating (0 to 100 scale) ([16]; 500 g ai/ha): 0; Plant response rating, Flood, Barnyardgrass [17]: 0; Plant response rating, Flood, Ducksalad [18]: 40; Plant response rating, Flood, Rice [19]: 0; Plant response rating, Flood, Sedge, Umbrella [20]: 0 |
